In ChEMBL document CHEMBL5678818, “Discovery of potent SOS1 inhibitors that block RAS activation via disruption of the RAS-SOS1 interaction” (Proc Natl Acad Sci U S A, 2019):

What was measured:
[1] = target: T1, NUAK family SNF1-like kinase 1 (Homo sapiens) (UniProt O60285); experiment: Inhibition of ARK5 (unknown origin) assessed as residual activity at 100 nM by KINOMEscan analysis relative to control
T1 sequence (whole entry): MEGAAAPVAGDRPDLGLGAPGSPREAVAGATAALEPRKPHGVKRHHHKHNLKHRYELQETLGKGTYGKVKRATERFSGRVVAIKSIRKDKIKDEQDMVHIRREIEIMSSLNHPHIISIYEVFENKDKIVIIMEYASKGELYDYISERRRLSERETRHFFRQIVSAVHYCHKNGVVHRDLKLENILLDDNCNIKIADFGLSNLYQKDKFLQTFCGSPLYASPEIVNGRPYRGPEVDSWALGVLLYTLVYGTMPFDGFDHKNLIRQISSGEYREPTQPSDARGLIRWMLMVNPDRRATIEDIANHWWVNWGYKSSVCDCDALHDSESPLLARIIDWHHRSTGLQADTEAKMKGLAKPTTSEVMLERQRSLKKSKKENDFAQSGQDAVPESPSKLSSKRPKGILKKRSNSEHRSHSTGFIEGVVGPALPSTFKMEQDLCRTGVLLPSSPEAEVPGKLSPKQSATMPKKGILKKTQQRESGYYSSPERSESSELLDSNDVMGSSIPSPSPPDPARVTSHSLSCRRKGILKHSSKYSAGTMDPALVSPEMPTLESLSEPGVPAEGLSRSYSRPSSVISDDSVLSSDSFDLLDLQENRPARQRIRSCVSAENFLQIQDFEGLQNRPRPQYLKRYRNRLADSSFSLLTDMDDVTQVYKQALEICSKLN

[2] = target: STE20-like serine/threonine-protein kinase (Homo sapiens) (UniProt Q9H2G2); experiment: Inhibition of SLK (unknown origin) assessed as residual activity at 100 nM by KINOMEscan analysis relative to control
Chain of STE20-like serine/threonine-protein kinase (Homo sapiens) (Q9H2G2 whole entry, looked up): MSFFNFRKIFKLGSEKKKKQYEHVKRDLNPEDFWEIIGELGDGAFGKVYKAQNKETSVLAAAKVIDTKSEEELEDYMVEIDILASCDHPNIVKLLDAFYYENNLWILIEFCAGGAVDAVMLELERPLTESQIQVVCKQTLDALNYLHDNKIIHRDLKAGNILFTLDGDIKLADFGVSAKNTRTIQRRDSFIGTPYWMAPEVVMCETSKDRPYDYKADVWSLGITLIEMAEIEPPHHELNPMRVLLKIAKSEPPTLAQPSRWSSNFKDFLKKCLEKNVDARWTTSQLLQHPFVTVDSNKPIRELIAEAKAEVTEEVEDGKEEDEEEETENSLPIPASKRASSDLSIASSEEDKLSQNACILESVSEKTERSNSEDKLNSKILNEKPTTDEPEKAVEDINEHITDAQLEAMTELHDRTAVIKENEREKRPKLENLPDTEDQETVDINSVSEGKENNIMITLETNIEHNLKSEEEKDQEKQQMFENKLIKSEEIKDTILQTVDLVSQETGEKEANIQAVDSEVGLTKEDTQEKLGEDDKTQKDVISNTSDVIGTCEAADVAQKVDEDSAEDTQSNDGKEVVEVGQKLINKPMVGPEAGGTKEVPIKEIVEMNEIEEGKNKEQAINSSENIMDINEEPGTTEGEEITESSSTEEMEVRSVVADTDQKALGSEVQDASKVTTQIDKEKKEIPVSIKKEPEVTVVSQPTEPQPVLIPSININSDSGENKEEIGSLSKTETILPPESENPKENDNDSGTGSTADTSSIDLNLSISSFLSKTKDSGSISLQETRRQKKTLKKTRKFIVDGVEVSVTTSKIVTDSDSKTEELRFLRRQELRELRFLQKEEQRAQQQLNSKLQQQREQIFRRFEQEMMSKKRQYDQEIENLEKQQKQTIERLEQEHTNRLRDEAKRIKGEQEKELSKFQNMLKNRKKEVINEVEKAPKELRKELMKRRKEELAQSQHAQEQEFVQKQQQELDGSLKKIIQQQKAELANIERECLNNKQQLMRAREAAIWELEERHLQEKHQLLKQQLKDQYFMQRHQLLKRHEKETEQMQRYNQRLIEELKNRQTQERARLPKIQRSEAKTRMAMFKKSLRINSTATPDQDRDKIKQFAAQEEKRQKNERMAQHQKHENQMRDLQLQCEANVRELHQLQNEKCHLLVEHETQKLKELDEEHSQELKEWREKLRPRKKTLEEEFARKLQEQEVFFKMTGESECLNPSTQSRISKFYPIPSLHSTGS

[3] = target: T2, Mitogen-activated protein kinase kinase kinase 2 (Homo sapiens) (UniProt Q9Y2U5); experiment: Inhibition of MAP3K2 (unknown origin) assessed as residual activity at 100 nM by KINOMEscan analysis relative to control
T2 sequence (whole entry): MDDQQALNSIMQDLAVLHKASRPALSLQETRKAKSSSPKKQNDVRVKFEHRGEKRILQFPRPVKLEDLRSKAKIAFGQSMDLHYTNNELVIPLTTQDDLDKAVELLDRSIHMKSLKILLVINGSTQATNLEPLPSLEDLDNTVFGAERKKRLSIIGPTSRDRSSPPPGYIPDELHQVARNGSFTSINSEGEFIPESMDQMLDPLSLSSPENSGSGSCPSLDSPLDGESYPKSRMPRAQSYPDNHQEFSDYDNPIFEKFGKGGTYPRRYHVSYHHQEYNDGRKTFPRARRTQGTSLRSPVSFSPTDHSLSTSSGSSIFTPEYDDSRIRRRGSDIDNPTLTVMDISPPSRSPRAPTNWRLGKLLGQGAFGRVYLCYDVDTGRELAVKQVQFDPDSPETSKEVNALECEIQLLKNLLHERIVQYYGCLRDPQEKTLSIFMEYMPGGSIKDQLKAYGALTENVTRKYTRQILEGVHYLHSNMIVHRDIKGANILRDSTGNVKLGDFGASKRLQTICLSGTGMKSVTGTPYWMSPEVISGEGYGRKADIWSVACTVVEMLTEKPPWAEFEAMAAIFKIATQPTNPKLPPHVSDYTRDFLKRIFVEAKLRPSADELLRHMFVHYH

[4] = target: T3, Serine/threonine-protein kinase PknB (Mycobacterium tuberculosis) (UniProt P9WI81); experiment: Inhibition of Mycobacterium tuberculosis PKNB assessed as residual activity at 100 nM by KINOMEscan analysis relative to control
T3 sequence (whole entry): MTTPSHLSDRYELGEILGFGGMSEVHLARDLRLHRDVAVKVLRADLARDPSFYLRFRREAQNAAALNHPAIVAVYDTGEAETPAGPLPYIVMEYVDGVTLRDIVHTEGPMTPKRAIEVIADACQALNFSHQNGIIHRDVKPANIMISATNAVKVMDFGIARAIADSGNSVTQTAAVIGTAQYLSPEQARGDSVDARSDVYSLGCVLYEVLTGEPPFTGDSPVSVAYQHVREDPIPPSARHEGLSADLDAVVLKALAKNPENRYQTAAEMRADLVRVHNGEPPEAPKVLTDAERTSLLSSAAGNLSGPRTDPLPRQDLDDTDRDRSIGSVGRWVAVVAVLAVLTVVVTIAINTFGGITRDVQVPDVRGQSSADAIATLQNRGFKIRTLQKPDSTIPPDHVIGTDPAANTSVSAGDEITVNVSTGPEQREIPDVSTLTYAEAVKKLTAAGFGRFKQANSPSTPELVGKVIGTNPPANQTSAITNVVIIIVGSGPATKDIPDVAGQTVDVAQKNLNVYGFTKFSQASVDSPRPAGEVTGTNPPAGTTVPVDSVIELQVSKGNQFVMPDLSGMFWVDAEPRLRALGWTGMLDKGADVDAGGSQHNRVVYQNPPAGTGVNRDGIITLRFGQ

COc1cc2ncnc(N[C@H](C)c3cccc4ccccc34)c2cc1OC
Activity [1]: 87% | Activity [2]: 100% | Activity [3]: 87% | Activity [4]: 96%
